Experimental data taken from ChEMBL document CHEMBL1201861, “Genomics of Drug Sensitity in Cancer screening data, Wellcome Trust Sanger Institute”.

Columns and labels:
Assay in all cases: cells
LC-2-ad = assay type: functional, cell-based, Homo sapiens; conditions: Homo sapiens, LC-2-ad
Description: SANGER: Inhibition of human LC-2-ad cell growth in a cell viability assay.

KE-37 = assay type: functional, cell-based, Homo sapiens; conditions: Homo sapiens, KE-37
Description: SANGER: Inhibition of human KE-37 cell growth in a cell viability assay.

KINGS-1 = assay type: functional, cell-based, Homo sapiens; conditions: Homo sapiens, KINGS-1
Description: SANGER: Inhibition of human KINGS-1 cell growth in a cell viability assay.

SW 954 = assay type: functional, cell-based, Homo sapiens; conditions: Homo sapiens, SW 954
Description: SANGER: Inhibition of human SW954 cell growth in a cell viability assay.

MZ7-mel = assay type: functional, cell-based, Homo sapiens; conditions: Homo sapiens, MZ7-mel
Description: SANGER: Inhibition of human MZ7-mel cell growth in a cell viability assay.

A498 = assay type: functional, cell-based, Homo sapiens; conditions: Homo sapiens, A498
Description: SANGER: Inhibition of human A498 cell growth in a cell viability assay.

SH-4 = assay type: functional, cell-based, Homo sapiens; conditions: Homo sapiens, SH-4
Description: SANGER: Inhibition of human SH-4 cell growth in a cell viability assay.

HEL = assay type: functional, cell-based, Homo sapiens; conditions: Homo sapiens, HEL
Description: SANGER: Inhibition of human HEL cell growth in a cell viability assay.

GT3TKB = assay type: functional, cell-based, Homo sapiens; conditions: Homo sapiens, GT3TKB
Description: SANGER: Inhibition of human GT3TKB cell growth in a cell viability assay.

MZ2-MEL = assay type: functional, cell-based, Homo sapiens; conditions: Homo sapiens, MZ2-MEL
Description: SANGER: Inhibition of human MZ2-MEL cell growth in a cell viability assay.

HCC 2998 = assay type: functional, cell-based, Homo sapiens; conditions: Homo sapiens, HCC 2998
Description: SANGER: Inhibition of human HCC2998 cell growth in a cell viability assay.

KM-H2 = assay type: functional, cell-based, Homo sapiens; conditions: Homo sapiens, KM-H2
Description: SANGER: Inhibition of human KM-H2 cell growth in a cell viability assay.

NEC8 = assay type: functional, cell-based, Homo sapiens; conditions: Homo sapiens, NEC8
Description: SANGER: Inhibition of human NEC8 cell growth in a cell viability assay.

D-502MG = assay type: functional, cell-based, Homo sapiens; conditions: Homo sapiens, D-502MG
Description: SANGER: Inhibition of human D-502MG cell growth in a cell viability assay.

SW684 = assay type: functional, cell-based, Homo sapiens; conditions: Homo sapiens, SW684
Description: SANGER: Inhibition of human SW684 cell growth in a cell viability assay.

EM-2 = assay type: functional, cell-based, Homo sapiens; conditions: Homo sapiens, EM-2
Description: SANGER: Inhibition of human EM-2 cell growth in a cell viability assay.

ACN = assay type: functional, cell-based, Homo sapiens; conditions: Homo sapiens, ACN
Description: SANGER: Inhibition of human ACN cell growth in a cell viability assay.

SF-268 = assay type: functional, cell-based, Homo sapiens; conditions: Homo sapiens, SF-268
Description: SANGER: Inhibition of human SF268 cell growth in a cell viability assay.

KMOE-2 = assay type: functional, cell-based, Homo sapiens; conditions: Homo sapiens, KMOE-2
Description: SANGER: Inhibition of human KMOE-2 cell growth in a cell viability assay.

TK-10 = assay type: functional, cell-based, Homo sapiens; conditions: Homo sapiens, TK-10
Description: SANGER: Inhibition of human TK10 cell growth in a cell viability assay.

A704 = assay type: functional, cell-based, Homo sapiens; conditions: Homo sapiens, A704
Description: SANGER: Inhibition of human A704 cell growth in a cell viability assay.

SHP77 = assay type: functional, cell-based, Homo sapiens, SHP-77; conditions: Homo sapiens, SHP77
Description: SANGER: Inhibition of human SHP-77 cell growth in a cell viability assay.

SK-MEL-2 = assay type: functional, cell-based, Homo sapiens; conditions: Homo sapiens, SK-MEL-2
Description: SANGER: Inhibition of human SK-MEL-2 cell growth in a cell viability assay.

MPP-89 = assay type: functional, cell-based, Homo sapiens; conditions: Homo sapiens, MPP-89
Description: SANGER: Inhibition of human MPP-89 cell growth in a cell viability assay.

BB30-HNC = assay type: functional, cell-based, Homo sapiens; conditions: Homo sapiens, BB30-HNC
Description: SANGER: Inhibition of human BB30-HNC cell growth in a cell viability assay.

RPMI-8226 = assay type: functional, cell-based, Homo sapiens; conditions: Homo sapiens, RPMI-8226
Description: SANGER: Inhibition of human RPMI-8226 cell growth in a cell viability assay.

PSN1 = assay type: functional, cell-based, Homo sapiens; conditions: Homo sapiens, PSN1
Description: SANGER: Inhibition of human PSN1 cell growth in a cell viability assay.

GAK = assay type: functional, cell-based, Homo sapiens; conditions: Homo sapiens, GAK
Description: SANGER: Inhibition of human GAK cell growth in a cell viability assay.

ES8 = assay type: functional, cell-based, Homo sapiens; conditions: Homo sapiens, ES8
Description: SANGER: Inhibition of human ES8 cell growth in a cell viability assay.

LB996-RCC = assay type: functional, cell-based, Homo sapiens; conditions: Homo sapiens, LB996-RCC
Description: SANGER: Inhibition of human LB996-RCC cell growth in a cell viability assay.

BT-474 = assay type: functional, cell-based, Homo sapiens; conditions: Homo sapiens, BT-474
Description: SANGER: Inhibition of human BT-474 cell growth in a cell viability assay.

NCI-H226 = assay type: functional, cell-based, Homo sapiens; conditions: Homo sapiens, NCI-H226
Description: SANGER: Inhibition of human NCI-H226 cell growth in a cell viability assay.

ALL-PO = assay type: functional, cell-based, Homo sapiens; conditions: Homo sapiens, ALL-PO
Description: SANGER: Inhibition of human ALL-PO cell growth in a cell viability assay.

SW982 = assay type: functional, cell-based, Homo sapiens; conditions: Homo sapiens, SW982
Description: SANGER: Inhibition of human SW982 cell growth in a cell viability assay.

U-87 MG = assay type: functional, cell-based, Homo sapiens, U-87MG ATCC; conditions: Homo sapiens, U-87 MG
Description: SANGER: Inhibition of human U-87-MG cell growth in a cell viability assay.

KNS-81-FD = assay type: functional, cell-based, Homo sapiens; conditions: Homo sapiens, KNS-81-FD
Description: SANGER: Inhibition of human KNS-81-FD cell growth in a cell viability assay.

ES1 = assay type: functional, cell-based, Homo sapiens; conditions: Homo sapiens, ES1
Description: SANGER: Inhibition of human ES1 cell growth in a cell viability assay.

no-11 = assay type: functional, cell-based, Homo sapiens; conditions: Homo sapiens
Description: SANGER: Inhibition of human no-11 cell growth in a cell viability assay.

OCUB-M = assay type: functional, cell-based, Homo sapiens; conditions: Homo sapiens, OCUB-M
Description: SANGER: Inhibition of human OCUB-M cell growth in a cell viability assay.

EW-3 = assay type: functional, cell-based, Homo sapiens; conditions: Homo sapiens, EW-3
Description: SANGER: Inhibition of human EW-3 cell growth in a cell viability assay.

COLO-668 = assay type: functional, cell-based, Homo sapiens; conditions: Homo sapiens, COLO-668
Description: SANGER: Inhibition of human COLO-668 cell growth in a cell viability assay.

EW-16 = assay type: functional, cell-based, Homo sapiens; conditions: Homo sapiens, EW-16
Description: SANGER: Inhibition of human EW-16 cell growth in a cell viability assay.

CGTH-W-1 = assay type: functional, cell-based, Homo sapiens; conditions: Homo sapiens, CGTH-W-1
Description: SANGER: Inhibition of human CGTH-W-1 cell growth in a cell viability assay.

NCI-H209 = assay type: functional, cell-based, Homo sapiens; conditions: Homo sapiens, NCI-H209
Description: SANGER: Inhibition of human NCI-H209 cell growth in a cell viability assay.

IST-MEL1 = assay type: functional, cell-based, Homo sapiens; conditions: Homo sapiens, IST-MEL1
Description: SANGER: Inhibition of human IST-MEL1 cell growth in a cell viability assay.

NB10 = assay type: functional, cell-based, Homo sapiens; conditions: Homo sapiens, NB10
Description: SANGER: Inhibition of human NB10 cell growth in a cell viability assay.

MFH-ino = assay type: functional, cell-based, Homo sapiens; conditions: Homo sapiens, MFH-ino
Description: SANGER: Inhibition of human MFH-ino cell growth in a cell viability assay.

LS-411N = assay type: functional, cell-based, Homo sapiens; conditions: Homo sapiens, LS-411N
HOP-62 = assay type: functional, cell-based, Homo sapiens; conditions: Homo sapiens, HOP-62
Description: SANGER: Inhibition of human HOP-62 cell growth in a cell viability assay.

## N#Cc1c(O)c2c(-c3ccc(-c4ccccc4O)cc3)csc2[nH]c1=O
LC-2-ad
  IC50: > 1.02 µM
KE-37
  IC50: 0.129 µM
KINGS-1
  IC50: > 1.02 µM
SW 954
  IC50: > 1.02 µM
MZ7-mel
  IC50: > 1.02 µM
A498
  IC50: > 1.02 µM
SH-4
  IC50: > 1.02 µM
HEL
  IC50: 0.107 µM
GT3TKB
  IC50: > 1.02 µM
MZ2-MEL
  IC50: > 1.02 µM
HCC 2998
  IC50: > 1.02 µM
KM-H2
  IC50: 0.424 µM
NEC8
  IC50: 0.48 µM
D-502MG
  IC50: > 1.02 µM
SW684
  IC50: > 1.02 µM
EM-2
  IC50: 0.344 µM
ACN
  IC50: > 1.02 µM
SF-268
  IC50: > 1.02 µM
KMOE-2
  IC50: 0.397 µM
TK-10
  IC50: > 1.02 µM
A704
  IC50: > 1.02 µM
SHP77
  IC50: 0.383 µM
SK-MEL-2
  IC50: > 1.02 µM
MPP-89
  IC50: > 1.02 µM
BB30-HNC
  IC50: > 1.02 µM
RPMI-8226
  IC50: 0.246 µM
PSN1
  IC50: > 1.02 µM
GAK
  IC50: > 1.02 µM
ES8
  IC50: > 1.02 µM
LB996-RCC
  IC50: > 1.02 µM
BT-474
  IC50: 0.151 µM
NCI-H226
  IC50: 0.407 µM
ALL-PO
  IC50: 0.0579 µM
SW982
  IC50: > 1.02 µM
U-87 MG
  IC50: 0.333 µM
KNS-81-FD
  IC50: > 1.02 µM
ES1
  IC50: > 1.02 µM
no-11
  IC50: > 1.02 µM
OCUB-M
  IC50: > 1.02 µM
EW-3
  IC50: > 1.02 µM
COLO-668
  IC50: > 1.02 µM
EW-16
  IC50: > 1.02 µM
CGTH-W-1
  IC50: > 1.02 µM
NCI-H209
  IC50: > 1.02 µM
IST-MEL1
  IC50: > 1.02 µM
NB10
  IC50: > 1.02 µM
MFH-ino
  IC50: > 1.02 µM
LS-411N
  IC50: > 1.02 µM
HOP-62
  IC50: > 1.02 µM

## Nc1ccn([C@@H]2O[C@H](CO)[C@@H](O)C2(F)F)c(=O)n1 [GEMCITABINE]
LC-2-ad
  IC50: < 0.004 µM
KE-37
  IC50: < 0.004 µM
KINGS-1
  IC50: > 1.02 µM
SW 954
  IC50: 0.0237 µM
MZ7-mel
  IC50: 0.0427 µM
A498
  IC50: > 1.02 µM
SH-4
  IC50: 0.00902 µM
HEL
  IC50: 0.00179 µM
GT3TKB
  IC50: 0.0427 µM
MZ2-MEL
  IC50: 0.0262 µM
HCC 2998
  IC50: 0.00634 µM
KM-H2
  IC50: 0.261 µM
NEC8
  IC50: 0.0354 µM
D-502MG
  IC50: > 1.02 µM
SW684
  IC50: > 1.02 µM
EM-2
  IC50: 0.16 µM
ACN
  IC50: < 0.004 µM
SF-268
  IC50: < 0.004 µM
KMOE-2
  IC50: 0.155 µM
TK-10
  IC50: 0.0145 µM
A704
  IC50: 0.0538 µM
SHP77
  IC50: > 1.02 µM
SK-MEL-2
  IC50: > 1.02 µM
MPP-89
  IC50: 0.692 µM
BB30-HNC
  IC50: < 0.004 µM
RPMI-8226
  IC50: 0.016 µM
PSN1
  IC50: < 0.004 µM
GAK
  IC50: 0.373 µM
ES8
  IC50: < 0.004 µM
LB996-RCC
  IC50: 0.0651 µM
BT-474
  IC50: > 1.02 µM
NCI-H226
  IC50: 0.317 µM
ALL-PO
  IC50: < 0.004 µM
SW982
  IC50: < 0.004 µM
U-87 MG
  IC50: 0.191 µM
KNS-81-FD
  IC50: > 1.02 µM
ES1
  IC50: < 0.004 µM
no-11
  IC50: 0.737 µM
OCUB-M
  IC50: 0.01 µM
EW-3
  IC50: 0.58 µM
COLO-668
  IC50: 0.00266 µM
EW-16
  IC50: < 0.004 µM
CGTH-W-1
  IC50: 0.00272 µM
NCI-H209
  IC50: 0.0521 µM
IST-MEL1
  IC50: < 0.004 µM
NB10
  IC50: 0.0244 µM
MFH-ino
  IC50: 0.00166 µM
LS-411N
  IC50: 0.0299 µM
HOP-62
  IC50: 0.223 µM
